# Reference: ChEMBL document CHEMBL1201862, “PubChem BioAssay data set” (2004)
#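 Exposure lasted 48 hours, with cells grown in 96-well plates and compounds tested at five concentrations. GI50 marks 50% less growth.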 Active and inactive are the calls of the source. Cut-off read from the data, not from the text of the source: active = GI50 up to about 1.1 µM and inactive = higher.
# How the values were obtained:
# Assay in all cases: growth of human tumour cells (NCI), 48 h
# [1] = test system: A549
# [2] = test system: ACHN
# [3] = test system: CAKI-1
# [4] = test system: CCRF-CEM
# [5] = test system: COLO 205
# [6] = test system: DLD-1
# [7] = test system: DMS-114
# [8] = test system: DMS-273
# [9] = test system: EKVX
# [10] = test system: HCC 2998
# [11] = test system: HCT-116
# [12] = test system: HCT-15
# [13] = test system: HOP-18
# [14] = test system: HOP-62
# [15] = test system: HOP-92
# [16] = test system: HT-29
# [17] = test system: IGROV-1
# [18] = test system: K562
# [19] = test system: KM-20L2
# [20] = test system: LOX IMVI
# [21] = test system: LXFL 529
# [22] = test system: M14
# [23] = test system: M19-MEL
# [24] = test system: MOLT-4
# [25] = test system: Malme-3M
# [26] = test system: NCI-H23
# [27] = test system: NCI-H460
# [28] = test system: NCI-H522
# [29] = test system: OVCAR-3
# [30] = test system: OVCAR-4
# [31] = test system: OVCAR-5
# [32] = test system: OVCAR-8
# [33] = test system: RPMI-8226
# [34] = test system: RXF 393
# [35] = test system: RXF 631
# [36] = test system: SF-268
# [37] = test system: SF-539
# [38] = test system: SK-MEL-28
# [39] = test system: SK-MEL-2
# [40] = test system: SK-MEL-5
# [41] = test system: SN12C
# [42] = test system: SNB-75
# [43] = test system: SNB-78
# [44] = test system: SR
# [45] = test system: SW-620
# [46] = test system: TK-10
# [47] = test system: UACC-257
# [48] = test system: UACC-62
# [49] = test system: UO-31
# [50] = test system: 786-0
# [51] = test system: A498
# [52] = test system: HL-60
# [53] = test system: KM12
# [54] = test system: NCI-H226
# [55] = test system: SK-OV-3
# [56] = test system: SNB-19
# [57] = test system: U-251
# [58] = test system: SF-295
smiles,measurement,setting,value
CC(=O)OC1(C#N)CC2OC1C1C2N=NN1C(=O)OC(C)(C)C (stereo not drawn),GI50,[1],34.4 µM (inactive)
same,GI50,[2],> 100 µM (inactive)
same,GI50,[3],> 100 µM (inactive)
same,GI50,[4],15.2 µM (inactive)
same,GI50,[5],> 100 µM (inactive)
same,GI50,[6],20.4 µM (inactive)
same,GI50,[7],23.2 µM (inactive)
same,GI50,[8],29 µM (inactive)
same,GI50,[9],68.2 µM (inactive)
same,GI50,[10],44.5 µM (inactive)
same,GI50,[11],12.5 µM (inactive)
same,GI50,[12],21.4 µM
same,GI50,[13],> 100 µM (inactive)
same,GI50,[14],> 100 µM (inactive)
same,GI50,[15],27.5 µM (inactive)
same,GI50,[16],39.4 µM (inactive)
same,GI50,[17],35 µM (inactive)
same,GI50,[18],33.5 µM (inactive)
same,GI50,[19],55.8 µM (inactive)
same,GI50,[20],11.5 µM (inactive)
same,GI50,[21],33 µM (inactive)
same,GI50,[22],21 µM (inactive)
same,GI50,[23],16.5 µM (inactive)
same,GI50,[24],50.1 µM (inactive)
same,GI50,[25],21.9 µM (inactive)
same,GI50,[26],29.6 µM (inactive)
same,GI50,[27],32 µM (inactive)
same,GI50,[28],> 100 µM (inactive)
same,GI50,[29],47.6 µM (inactive)
same,GI50,[30],65.6 µM (inactive)
same,GI50,[31],54.6 µM (inactive)
same,GI50,[32],34.6 µM (inactive)
same,GI50,[33],39.9 µM (inactive)
same,GI50,[34],40.6 µM (inactive)
same,GI50,[35],50.6 µM (inactive)
same,GI50,[36],37.1 µM (inactive)
same,GI50,[37],23.2 µM (inactive)
same,GI50,[38],28.8 µM (inactive)
same,GI50,[39],23.4 µM (inactive)
same,GI50,[40],35.3 µM (inactive)
same,GI50,[41],35.6 µM (inactive)
same,GI50,[42],31.8 µM (inactive)
same,GI50,[43],26.9 µM (inactive)
same,GI50,[44],32.8 µM (inactive)
same,GI50,[45],30.7 µM (inactive)
same,GI50,[46],20.4 µM (inactive)
same,GI50,[47],35.4 µM (inactive)
same,GI50,[48],19.5 µM (inactive)
same,GI50,[49],73.3 µM (inactive)
CC1=NNC(=O)C2CCC(=O)N12 (stereo not drawn),GI50,[50],> 100 µM (inactive)
same,GI50,[51],> 100 µM (inactive)
same,GI50,[1],> 100 µM (inactive)
same,GI50,[2],> 100 µM (inactive)
same,GI50,[3],> 100 µM (inactive)
same,GI50,[4],> 100 µM (inactive)
same,GI50,[5],> 100 µM (inactive)
same,GI50,[6],> 100 µM (inactive)
same,GI50,[7],> 100 µM (inactive)
same,GI50,[8],> 100 µM (inactive)
same,GI50,[9],> 100 µM (inactive)
same,GI50,[10],> 100 µM (inactive)
same,GI50,[11],> 100 µM (inactive)
same,GI50,[12],> 100 µM
same,GI50,[52],> 100 µM (inactive)
same,GI50,[13],> 100 µM (inactive)
same,GI50,[14],> 100 µM (inactive)
same,GI50,[17],> 100 µM (inactive)
same,GI50,[18],> 100 µM (inactive)
same,GI50,[19],49.2 µM (inactive)
same,GI50,[53],> 100 µM (inactive)
same,GI50,[21],> 100 µM (inactive)
same,GI50,[22],> 100 µM (inactive)
same,GI50,[23],> 100 µM (inactive)
same,GI50,[24],> 100 µM (inactive)
same,GI50,[25],> 100 µM (inactive)
same,GI50,[54],> 100 µM (inactive)
same,GI50,[27],> 100 µM (inactive)
same,GI50,[28],> 100 µM (inactive)
same,GI50,[29],> 100 µM (inactive)
same,GI50,[30],> 100 µM (inactive)
same,GI50,[32],> 100 µM (inactive)
same,GI50,[33],> 100 µM (inactive)
same,GI50,[34],> 100 µM (inactive)
same,GI50,[35],> 100 µM (inactive)
same,GI50,[36],> 100 µM (inactive)
same,GI50,[37],> 100 µM (inactive)
same,GI50,[38],> 100 µM (inactive)
same,GI50,[39],> 100 µM (inactive)
same,GI50,[40],> 100 µM (inactive)
same,GI50,[55],> 100 µM (inactive)
same,GI50,[41],> 100 µM (inactive)
same,GI50,[56],> 100 µM (inactive)
same,GI50,[42],> 100 µM (inactive)
same,GI50,[43],> 100 µM (inactive)
same,GI50,[44],> 100 µM (inactive)
same,GI50,[45],> 100 µM (inactive)
same,GI50,[46],> 100 µM (inactive)
same,GI50,[57],> 100 µM (inactive)
same,GI50,[47],> 100 µM (inactive)
same,GI50,[49],> 100 µM (inactive)
CC1=C2C(=CC(C)(CO)C2O)C(=O)C(C)(O)C12CC2 (stereo not drawn),GI50,[50],0.00337 µM (active)
same,GI50,[51],0.00716 µM (active)
same,GI50,[1],0.00254 µM (active)
same,GI50,[2],0.00152 µM (active)
same,GI50,[3],0.00367 µM (active)
same,GI50,[4],0.00201 µM (active)
same,GI50,[5],0.00353 µM (active)
same,GI50,[6],0.00895 µM (active)
same,GI50,[7],0.00205 µM (active)
same,GI50,[8],0.00162 µM (active)
same,GI50,[9],0.0103 µM (active)
same,GI50,[10],0.00213 µM (active)
same,GI50,[11],0.00123 µM (active)
same,GI50,[12],0.00197 µM
same,GI50,[52],0.00131 µM (active)
same,GI50,[13],0.007 µM (active)
same,GI50,[14],0.00433 µM (active)
same,GI50,[15],0.00255 µM (active)
same,GI50,[16],0.00154 µM (active)
same,GI50,[17],0.00721 µM (active)
same,GI50,[18],0.00279 µM (active)
same,GI50,[19],0.00216 µM (active)
same,GI50,[53],0.00228 µM (active)
same,GI50,[20],0.00161 µM (active)
same,GI50,[21],0.00393 µM (active)
same,GI50,[22],0.00327 µM (active)
same,GI50,[23],0.00337 µM (active)
same,GI50,[24],0.00156 µM (active)
same,GI50,[25],0.00361 µM (active)
same,GI50,[54],0.00492 µM (active)
same,GI50,[26],0.00203 µM (active)
same,GI50,[27],0.000668 µM (active)
same,GI50,[28],0.000776 µM (active)
same,GI50,[29],0.00493 µM (active)
same,GI50,[30],0.00243 µM (active)
same,GI50,[31],0.00673 µM (active)
same,GI50,[32],0.00286 µM (active)
same,GI50,[33],0.895 µM (active)
same,GI50,[34],0.00163 µM (active)
same,GI50,[35],0.00274 µM (active)
same,GI50,[36],0.00114 µM (active)
same,GI50,[58],0.00115 µM (active)
same,GI50,[37],0.00569 µM (active)
same,GI50,[38],0.00425 µM (active)
same,GI50,[39],0.00148 µM (active)
same,GI50,[40],0.00108 µM (active)
same,GI50,[55],0.005 µM (active)
same,GI50,[41],0.00705 µM (active)
same,GI50,[56],0.00474 µM (active)
same,GI50,[42],0.00395 µM (active)
same,GI50,[43],0.00144 µM (active)
same,GI50,[44],0.00347 µM (active)
same,GI50,[45],0.00142 µM (active)
same,GI50,[46],0.00719 µM (active)
same,GI50,[57],0.00102 µM (active)
same,GI50,[47],0.00249 µM (active)
same,GI50,[48],0.00286 µM (active)
same,GI50,[49],0.00457 µM (active)
